Source: US8071383B2, “D-amino acid selection for soybean” (BASF Plant Science GmbH, priority 2006, dated 2011)

Assays:
Format in all cases: cell-based, Glycine max
[1] = tested on: soybean explants; assay: SELDA selection and co-cultivation hormones, transformation efficiency; conditions: for Ave TE (%) / Confirmed events / TE range (%): vector RLM407, D-serine selection
Description: In the first experiment, the experimental design included 10 repetitions over time (cutting experiments by 3 researchers) with 4 different co-cultivation media (treatments) per repetition and a minimum of 50 explants per treatment. Solid co-cultivation was prepared as stated earlier except the hormone, BAP, was replaced with one of the 4 following hormones: 7.5 μM BAP, 1.0 μM kinetin, 5.0 μM kinetin, or 7.5 μM kinetin. In the second experiment, the experimental design included 3 repetitions over time (cutting experiments by 1 researcher) with 5 different co-cultivation media (treatments) per repetition and a minimum of 50 explants per treatment. Solid co-cultivation was prepared by replacing BAP with one of the 5 following hormones: 7.5 μM BAP, 1.0 μM kinetin, 3 μM kinetin, 5 μM kinetin, or 7 μM kinetin.
For both experiments, explants were prepared, inoculated with 50 mL of liquid co-cultivation medium containing SHA017/pSB1 carrying vector RLM407 for 30 minutes, and then randomly placed onto 1 of 4 or 5 solid co-cultivation media treatments, respectively. The protocol was followed as stated above with the D-serine selection regime: one week on shoot induction without selection, 3 weeks on shoot induction medium with 7.5 mM D-serine, then 5 mM D-serine throughout shoot elongation. Only one shoot per explant was removed to eliminate regeneration of clones. Putative transformants were confirmed for the presence of the dsda gene using quantitative PCR (TaqMan) and the transformation efficiency (TE) was calculated using the formula: [(number of dsda positive TaqMan confirmed independent events/total number of explants inoculated (n))*100].

[2] = tested on: soybean primary node explants inoculated with REW008; assay: D-alanine and D-alanine/D-serine killing curves using primary node explants; conditions: for D-alanine Kill Curve-regeneration (%) after 3 weeks on SIM: Experiment 1; for D-alanine + 7.5 mM D-serine Kill Curve-regeneration (%) after 3 weeks on SIM: Experiment 2
Description: Kill curves for D-alanine selection with and without 7.5 mM D-serine were conducted for future experiments using dao1 as a selectable marker gene. The combination of using D-alanine and D-serine was also performed for the dao1 gene which can metabolize both D-alanine and D-serine. The binary plasmids RET019 (Pactin-dao1, Pubi-gus) and REW008 (Pnos-bar, Pubi-gus) were used as a positive and a negative control, respectively, and the T-DNA mobilized into soybean using Agrobacterium rhizogenes strain SHA017pSB1.
Explants were inoculated with Agrobacterium, co-cultivated for 5 days, then moved onto shoot induction medium with or without selection for one week. After that time, explants were transferred onto new SIM with selection.
In experiment 1, D-alanine was added to the SIM medium at the following concentrations: 0, 3, 7.5, 10, 20, 30, and 50 mM.
In experiment 2, D-alanine was added in the same concentrations with 7.5 mM D-serine.
The experimental design was as follows: T(treatment)1: 7 explants inoculated with REW008 with 1 week recovery; T2: 7 explants inoculated with REW008 with no recovery; The results of the experiment are shown in Table 2b. […] This drop was not seen on explants with recovery until 20 mM D-alanine. When in combination with D-serine, the explants do have reduced regeneration at lower concentrations, between 7.5 and 10 mM.

[3] = tested on: non-Agrobacterium infected soybean axillary meristem explants; assay: Killing curve for D-serine toxicity on non-inoculated seedling axillary meristem explants; conditions: 60 mM D-serine in SIM, 4 weeks
Description: Killing curves for D-serine toxicity on non-Agrobacterium infected soybean tissues were performed on axillary meristem explants. Thirty explants were prepared as described above in example 1 and cultured on SIM containing either 0 mM, 3 μM, 30 μM, 300 μM, 3 mM, 30 mM, or 60 mM D-serine for a total of 4 weeks. After this time, the percent of explants with new shoot primordia, i.e. appearance of multiple shoots, were counted. In this experiment, a reduction in regeneration occurred between 3 and 30 mM and only 30% regeneration on explants exposed to 60 mM D-serine was seen (FIG. 1).

[4] = tested on: soybean axillary meristem explants, Dairyland cultivar 98043; assay: Kill curve with D-serine on inoculated axillary meristem explants (shoot induction and elongation)
Description: In order to establish an effective level of selection during shoot induction and elongation a broad range of D-Serine concentrations was initially explored. Soybean axillary meristem explants were prepared from 7 day-old-seedlings from the Dairyland cultivar 98043, as described above in Examples 1 and 3.
Agrobacterium rhizogenes strain SHA017 with the Super Vir pSB1 plasmid and containing the binary plasmids pRET017 or pREW008 were prepared as described in example 2. pRET017 contains nosP-c-dsdA/na-nosT and pPcUBI-gusINT-nosT (Example 9). pREW008 contains nosP-bar-nosT and pPcUBI-gusINT-nosT and was used as a control vector (Example 9).
Explants were handled as described above in example 4. After one week on shoot induction medium (SIM) medium with no selection, explants were transferred to SIM medium containing various concentrations of D-serine ranging from 0 to 15 to 30 to 45 mM. All regenerating explants (shoot pads) were transferred to shoot elongation media (SEM) containing 3 mM D-serine after three and six weeks of incubation. Elongating shoots were transferred to rooting medium (RM) medium and screened by GUS expression and Taqman analysis.

[5] = Table 6 (experiment 1), 7.5 uM BAP in co-cultivation medium
[6] = Table 7 (experiment 2), 7.5 uM BAP in co-cultivation medium
[7] = Table 6 (experiment 1), 1 uM Kinetin in co-cultivation medium
[8] = Table 6 (experiment 1), 5 uM Kinetin in co-cultivation medium
[9] = Table 6 (experiment 1), 7.5 uM Kinetin in co-cultivation medium
[10] = Table 7 (experiment 2), 1 uM Kinetin in co-cultivation medium
[11] = Table 7 (experiment 2), 3 uM Kinetin in co-cultivation medium
[12] = Table 7 (experiment 2), 5 uM Kinetin in co-cultivation medium
[13] = Table 7 (experiment 2), 7 uM Kinetin in co-cultivation medium

SMILES: c1ccc(CNc2ncnc3nc[nH]c23)cc1 [BAP, 6-benzylaminopurine]
- Ave TE (%) [1, 5]: 0.4%
- Confirmed events [1, 5]: 3
- TE range (%) [1, 5]: 0-2.5%
- Ave TE (%) [1, 6]: 1.3%
- Confirmed events [1, 6]: 3
- TE range (%) [1, 6]: 0-2.5%

SMILES: C[C@@H](N)C(=O)O [D-alanine]
- D-alanine Kill Curve-regeneration (%) after 3 weeks on SIM ([2]; 3 mM D-alanine, T1: REW008 with 1 week recovery): 100%
- D-alanine Kill Curve-regeneration (%) after 3 weeks on SIM ([2]; 3 mM D-alanine, T2: REW008 with no recovery): 71%
- D-alanine Kill Curve-regeneration (%) after 3 weeks on SIM ([2]; 7.5 mM D-alanine, T1: REW008 with 1 week recovery): 100%
- D-alanine Kill Curve-regeneration (%) after 3 weeks on SIM ([2]; 7.5 mM D-alanine, T2: REW008 with no recovery): 86%
- D-alanine Kill Curve-regeneration (%) after 3 weeks on SIM ([2]; 10 mM D-alanine, T1: REW008 with 1 week recovery): 100%
- D-alanine Kill Curve-regeneration (%) after 3 weeks on SIM ([2]; 10 mM D-alanine, T2: REW008 with no recovery): 71%
- D-alanine Kill Curve-regeneration (%) after 3 weeks on SIM ([2]; 20 mM D-alanine, T1: REW008 with 1 week recovery): 100%
- D-alanine Kill Curve-regeneration (%) after 3 weeks on SIM ([2]; 20 mM D-alanine, T2: REW008 with no recovery): 27%
- D-alanine Kill Curve-regeneration (%) after 3 weeks on SIM ([2]; 30 mM D-alanine, T1: REW008 with 1 week recovery): 29%
- D-alanine Kill Curve-regeneration (%) after 3 weeks on SIM ([2]; 30 mM D-alanine, T2: REW008 with no recovery): 0%
- D-alanine Kill Curve-regeneration (%) after 3 weeks on SIM ([2]; 50 mM D-alanine, T1: REW008 with 1 week recovery): 0%
- D-alanine Kill Curve-regeneration (%) after 3 weeks on SIM ([2]; 50 mM D-alanine, T2: REW008 with no recovery): 0%
- D-alanine + 7.5 mM D-serine Kill Curve-regeneration (%) after 3 weeks on SIM ([2]; 3 mM D-alanine + 7.5 mM D-serine, T1: REW008 with 1 week recovery): 100%
- D-alanine + 7.5 mM D-serine Kill Curve-regeneration (%) after 3 weeks on SIM ([2]; 3 mM D-alanine + 7.5 mM D-serine, T2: REW008 with no recovery): 100%
- D-alanine + 7.5 mM D-serine Kill Curve-regeneration (%) after 3 weeks on SIM ([2]; 7.5 mM D-alanine + 7.5 mM D-serine, T1: REW008 with 1 week recovery): 100%
- D-alanine + 7.5 mM D-serine Kill Curve-regeneration (%) after 3 weeks on SIM ([2]; 7.5 mM D-alanine + 7.5 mM D-serine, T2: REW008 with no recovery): 71%
- D-alanine + 7.5 mM D-serine Kill Curve-regeneration (%) after 3 weeks on SIM ([2]; 10 mM D-alanine + 7.5 mM D-serine, T1: REW008 with 1 week recovery): 71%
- D-alanine + 7.5 mM D-serine Kill Curve-regeneration (%) after 3 weeks on SIM ([2]; 10 mM D-alanine + 7.5 mM D-serine, T2: REW008 with no recovery): 57%
- D-alanine + 7.5 mM D-serine Kill Curve-regeneration (%) after 3 weeks on SIM ([2]; 20 mM D-alanine + 7.5 mM D-serine, T1: REW008 with 1 week recovery): 57%
- D-alanine + 7.5 mM D-serine Kill Curve-regeneration (%) after 3 weeks on SIM ([2]; 20 mM D-alanine + 7.5 mM D-serine, T2: REW008 with no recovery): 0%
- D-alanine + 7.5 mM D-serine Kill Curve-regeneration (%) after 3 weeks on SIM ([2]; 30 mM D-alanine + 7.5 mM D-serine, T1: REW008 with 1 week recovery): 0%
- D-alanine + 7.5 mM D-serine Kill Curve-regeneration (%) after 3 weeks on SIM ([2]; 30 mM D-alanine + 7.5 mM D-serine, T2: REW008 with no recovery): 14%
- D-alanine + 7.5 mM D-serine Kill Curve-regeneration (%) after 3 weeks on SIM ([2]; 50 mM D-alanine + 7.5 mM D-serine, T1: REW008 with 1 week recovery): 0%
- D-alanine + 7.5 mM D-serine Kill Curve-regeneration (%) after 3 weeks on SIM ([2]; 50 mM D-alanine + 7.5 mM D-serine, T2: REW008 with no recovery): 0%
- D-alanine concentration at which the regeneration frequency drops below 70% ([2]; explants exposed immediately after co-cultivation): 30 mM
- D-alanine concentration at which the regeneration frequency drops below 70% ([2]; explants with recovery): 20 mM

SMILES: N[C@H](CO)C(=O)O [D-serine]
- D-alanine + 7.5 mM D-serine Kill Curve-regeneration (%) after 3 weeks on SIM ([2]; 0 mM D-alanine + 7.5 mM D-serine, T1: REW008 with 1 week recovery): 100%
- D-alanine + 7.5 mM D-serine Kill Curve-regeneration (%) after 3 weeks on SIM ([2]; 0 mM D-alanine + 7.5 mM D-serine, T2: REW008 with no recovery): 100%
- percent of explants with new shoot primordia (regeneration) [3]: 30%
- shoot elongation ([4]; 3 mM D-Ser in SEM, explants coming from 30 or 45 mM D-Ser during shoot induction): no shoot elongation
- Percent of explants surviving after three weeks in shoot elongation (SEM) + 3 mM D-serine ([4]; D-Ser in SIM 0 mM, RET017): 82.8%
- Percent of explants surviving after three weeks in shoot elongation (SEM) + 3 mM D-serine ([4]; D-Ser in SIM 0 mM, REW008): 94.7%
- Percent of explants surviving after three weeks in shoot elongation (SEM) + 3 mM D-serine ([4]; D-Ser in SIM 15 mM, RET017): 74.1%
- Percent of explants surviving after three weeks in shoot elongation (SEM) + 3 mM D-serine ([4]; D-Ser in SIM 15 mM, REW008): 72.1%
- Percent of explants regenerating after 3 weeks in shoot induction (SIM) medium ([4]; D-Ser in SIM 15 mM, explants inoculated with RET017 (nosP-dsdA)): 78.1%
- Percent of explants regenerating after 3 weeks in shoot induction (SIM) medium ([4]; D-Ser in SIM 15 mM, explants inoculated with REW008 (control vector)): 76.9%
- Percent of explants surviving after three weeks in shoot elongation (SEM) + 3 mM D-serine ([4]; D-Ser in SIM 30 mM, RET017): 33.6%
- Percent of explants surviving after three weeks in shoot elongation (SEM) + 3 mM D-serine ([4]; D-Ser in SIM 30 mM, REW008): 34.5%
- Percent of explants regenerating after 3 weeks in shoot induction (SIM) medium ([4]; D-Ser in SIM 30 mM, explants inoculated with RET017 (nosP-dsdA)): 61.2%
- Percent of explants regenerating after 3 weeks in shoot induction (SIM) medium ([4]; D-Ser in SIM 30 mM, explants inoculated with REW008 (control vector)): 55.3%
- Percent of explants surviving after three weeks in shoot elongation (SEM) + 3 mM D-serine ([4]; D-Ser in SIM 45 mM, RET017): 4.9%
- Percent of explants surviving after three weeks in shoot elongation (SEM) + 3 mM D-serine ([4]; D-Ser in SIM 45 mM, REW008): 2.6%
- Percent of explants regenerating after 3 weeks in shoot induction (SIM) medium ([4]; D-Ser in SIM 45 mM, explants inoculated with RET017 (nosP-dsdA)): 25.5%
- Percent of explants regenerating after 3 weeks in shoot induction (SIM) medium ([4]; D-Ser in SIM 45 mM, explants inoculated with REW008 (control vector)): 21.9%
- shoot elongation ([4]; explants exposed to 15 mM D-Ser during shoot induction): Few shoots elongated

SMILES: c1coc(CNc2ncnc3[nH]cnc23)c1 [Kinetin]
- Ave TE (%) [1, 7]: 1.4%
- Confirmed events [1, 7]: 10
- TE range (%) [1, 7]: 0-6.4%
- Ave TE (%) [1, 8]: 2.3%
- Confirmed events [1, 8]: 9
- TE range (%) [1, 8]: 0-4.2%
- Ave TE (%) [1, 9]: 2.7%
- Confirmed events [1, 9]: 19
- TE range (%) [1, 9]: 0-9.8%
- Ave TE (%) [1, 10]: 3.7%
- Confirmed events [1, 10]: 8
- TE range (%) [1, 10]: 1.3-8.1%
- Ave TE (%) [1, 11]: 2.5%
- Confirmed events [1, 11]: 6
- TE range (%) [1, 11]: 2.3-2.7%
- Ave TE (%) [1, 12]: 1.8%
- Confirmed events [1, 12]: 4
- TE range (%) [1, 12]: 1.2-3%
- Ave TE (%) [1, 13]: 2.2%
- Confirmed events [1, 13]: 5
- TE range (%) [1, 13]: 0-5.2%
- average transformation efficiency with kinetin in the co-cultivation media compared with BAP ([1]; both experiments): higher average transformation efficiencies
